In PubChem BioAssay AID463229 (Broad Institute, 2010) one finds AC50 data, which are given here for 91 molecules.

Structures are written as SMILES.

In the assay the test system is INS-1E rat beta cells, no cytokines, CellTiter-Glo ATP, 48 h. In words: ATP level change in INS-1E without cytokines, dose response, counter-screen for beta-cell apoptosis protection project, INS-1E rat cells, ATP luminescence, cherry pick (AID 463229). In general terms: Counterscreens check selectivity or assay interference.
For `CN1/C(=C\C(=S)Nc2ccccc2)C(C)(C)c2ccccc21`, the AC50 (commonly the midpoint of the concentration-response curve, whichever way the signal moves) was 10.1 µM.
Consider `Clc1ccccc1Nc1nnc(-c2ccncc2)s1`, for which the AC50 is 4.64 µM.
The value for `NCCCn1c(C(=O)c2cc(Cl)c(N)c(Cl)c2)c2ccc([N+](=O)[O-])cc2[n+]1[O-]` was 5.34 µM; that for `COc1cccc(/C=N/Nc2nc3ccccc3n3cnnc23)c1O` was 7.23 µM.
`O=C(Nc1ccc(Cl)c(Cl)c1)N1CCSC1c1ccco1` (stereo unspecified): the AC50 was 14.2 µM.
Regarding `O=C1N/C(=N\N=C\c2cccnc2)SC1Cc1ccc(SC(F)F)cc1` (stereo unspecified), the AC50 was 9.68 µM.
On to `N/C(=N\OC(=O)c1cccc(Cn2cc(C(F)(F)F)ccc2=O)c1)c1ccc(Cl)cc1`, for which the AC50 was 8.25 µM.
Regarding `O=C(Nc1cc(S(=O)(=O)Nc2ccc(Cl)cc2)ccc1N1CCCCC1)c1ccc(F)cc1`, the AC50 was 7.6 µM.
The value for `CC(CCCC(C)(C)O)NC(=O)c1cc(COc2ccc3ncccc3c2)on1` (stereo unspecified) was 8.48 µM; that for `O=[N+]([O-])c1cc(CN2CCN(c3ccccc3)CC2)c(O)c2ncccc12` was 3.1 µM; that for `COc1ccc(CCNC(=O)c2cc3c(=O)n4cccc(C)c4nc3n(Cc3ccco3)c2=N)cc1OC` was 9.18 µM.
Next, `Cc1ccc(C(=O)OCn2ncc(Cl)c(Cl)c2=O)cc1`: 7.77 µM; `Cc1noc(-c2ccc(C(F)(F)F)cc2)c1NC(=O)Nc1ccc(Cl)cc1`: 7.7 µM; `Cc1cc(N2CCN(c3nc4ccccc4s3)CC2)n2ncnc2n1`: 7.32 µM.
Next, `Oc1c(Br)cc(Br)cc1/C=N/NC(=S)N[C@H]1CC2C=CC1C2` (stereo partly specified): 12.1 µM; `C/C(=N\NC(=O)c1cccc(Br)c1)c1ccccn1`: 1.32 µM.
With `COc1ccc(Nc2nc(N3CCCC3)c3ccccc3n2)cc1`, the AC50 was 9.85 µM.
Next, `CCC[N+]1(CC#CCC(c2ccccc2)c2ccccc2)CCCCC1`: 2.03 µM; `Nc1nonc1-n1nnc(C(=O)N/N=C/c2ccccc2O)c1CN1CCCC1`: 22.9 µM; `CCN1c2ccccc2NC2N=C(OC)C(c3ccccc3)C21` (stereo unspecified): 13.1 µM.
The value for `CCN(CC)c1ccc(/C=N/NC(=O)c2cccc(S(=O)(=O)N3CCOCC3)c2)c(O)c1` was 2.12 µM; that for `Cc1ccc(-c2c[n+]3c(n2-c2ccccc2)CCC3)cc1` was 2.02 µM; that for `Cc1ccc(C(C)C)c(OCc2ccc(C(=O)N/N=C/c3ccc(O)cc3O)cc2)c1` was 3.99 µM.
The value for `COc1ccc(-[n+]2c(C)cc(/C=C3\Sc4ccccc4N3C)cc2C)cc1` was under 0.195 µM; that for `Cc1ccc(-c2c(C#N)c(N)n3c(nc4ccccc43)c2C#N)cc1` was 4.1 µM; that for `Cn1nccc1C(=O)N/N=C/c1c(O)ccc2ccccc12` was 3.54 µM.
Consider `Cc1ccccc1CS(=O)(=O)c1nnc([C@H](Cc2ccccc2)NC(=O)OC(C)(C)C)o1`, for which the AC50 was 13 µM.
Next, `COc1ccc(NS(=O)(=O)c2ccc(-c3cnc(C4CC4)o3)cc2)cc1OC`: 6.58 µM; `CC(=O)NC(c1cccc([N+](=O)[O-])c1)c1ccc2cccnc2c1O` (stereo unspecified): 2.58 µM; `O=C(CSC1=NCCS1)Nc1ccnc2ccccc12`: 12.5 µM.
Next, `CN1/C(=C\C=C2/SC(=S)NC2=O)C(C)(C)c2ccccc21`: 3.38 µM; `CCc1cc(CNC(=O)c2ccc3nc(Cc4ccc(OC)c(OC)c4)oc3c2)on1`: 9.39 µM; `O=C1C=C(c2ccc(F)cc2OCc2ccccc2)C[C@@H](c2ccc(Cl)cc2)C1`: 5.46 µM.
For `COc1ccc(-c2ccc3c(c2)S(=O)(=O)c2cccc(C(=O)NCCOc4ccccc4Cl)c2C3=O)cc1OC`, the AC50 is 3.5 µM.
For the molecule `CNc1nc2cc([N+](=O)[O-])c([N+](=O)[O-])cc2nc1NC`, the AC50 is 0.278 µM.
Next, `Cc1ccc(NC(=O)C2CCN(S(=O)(=O)c3ccc4c(c3)NC(=O)C(C)S4)CC2)cc1Cl` (stereo unspecified): 4.64 µM; `O=[N+]([O-])c1ccc(NC(=S)NCCc2ccc(F)cc2)cc1`: 7.46 µM.
The value for `COc1ccc(/C(C)=N/Nc2nc(C)cc(-c3ccccc3)n2)cc1` was 9.59 µM; that for `COc1ccccc1-n1c(=O)oc2ccc(Cl)cc2c1=O` was 11.8 µM; that for `Oc1c(C(c2ccccc2Cl)N2CCCC2)ccc2cccnc12` (stereo unspecified) was 7.11 µM.
Next, `Cc1cc(Nc2cccc(F)c2)nc(NCc2ccccc2)n1`: 5.15 µM; `COCCC1CCCCN1C(=O)c1cc(COc2ccc(-n3cncn3)cc2)on1` (stereo unspecified): 6.35 µM.
With `Cc1nn(Cc2c(Cl)cccc2Cl)c(C)c1NC(=O)c1cn(-c2ccccc2)nc1-c1ccccc1`, the AC50 is 4.24 µM.
As for `[O-][n+]1onc2c1CCc1c-2nn(-c2ccccc2Cl)[n+]1[O-]`, the AC50 is 7.37 µM.
In the case of `O=C(CN1CC[n+]2c(-c3cccs3)csc21)c1ccc(-c2ccccc2)cc1`, the AC50 was 2.34 µM.
Turning to `Cc1ccc(-c2cn(-c3ccc(OC(F)F)cc3)c3[n+]2CCCCC3)cc1`, the AC50 is 1.45 µM.
The value for `C/C(=N\NC(=O)c1nnn(-c2nonc2N)c1-c1ccccc1)c1ccccc1O` was 2.17 µM; that for `O=[N+]([O-])c1cc(C(F)(F)F)ccc1NCCCCNS(=O)(=O)c1ccc(Cl)cc1` was 6.94 µM; that for `COc1ccc(-c2c[n+]3c4n2CCCCC4=C(c2ccc(Br)cc2)C3)cc1` was 3.14 µM.
Take `O=C(N/N=C/c1cc(Br)cc(Cl)c1O)c1ccc2c(c1)OCO2`: the AC50 was 11 µM.
`C#CCOCCOCCOCCNc1nc(N2CCN(C(=O)CCCCCCCCCCNC(=O)[C@H]([C@@H](C)CC)n3cc(CCCCCN)nn3)CC2)nc(N2CCN(C(=O)CCCCCCCCCCNC(=O)[C@@H]([C@H](C)O)n3cc(C)nn3)CC2)n1`: the AC50 was 6.55 µM.
On to `COc1ccc(/C=C/C(=O)c2ccc([N+](=O)[O-])o2)cc1OC`, for which the AC50 is 4.93 µM.
On to `COC(=O)c1cc(=O)n(CCc2ccccc2F)c(=Nc2ccc(F)c(Cl)c2)s1`, for which the AC50 is 11.1 µM.
The value for `O=[N+]([O-])c1ccc(NC(=S)NCCc2ccc(Cl)cc2)cc1` was 8.12 µM.
The value for `COc1cc(OC)nc(-n2ncc(Br)c(Br)c2=O)n1` was 6.66 µM.
The value for `COc1ccc(/C=C2\CN(Cc3ccccc3)C/C(=C\c3ccc(OC)c(O)c3)C2=O)cc1O` was 4.75 µM; that for `O=C(Nc1nc(-c2ccccn2)cs1)Nc1ccc(F)cc1F` was 10.2 µM.
Turning to `CC1=C/C(=N\OS(=O)(=O)c2ccccc2)C(C(C)C)=CC1=O`, the AC50 is 6.84 µM.
On to `O=C(NCCc1cn2ccccc2n1)c1cc(COc2ccc3ncccc3c2)on1`, for which the half-maximal activity concentration (AC50) was 8.04 µM.
Next, `CCOc1ccc(OCc2ccc(C(=O)NN=Cc3ccc[nH]3)cc2)cc1`: 0.739 µM.
In the case of `O=c1c2c(nc3c(-c4ccc(Cl)cc4)c[nH]n13)CCCC2`, the AC50 is 7.43 µM.
The value for `O=C(/C(=C/c1cccc(Cl)c1)c1nc2ccccc2[nH]1)c1ccccc1` was 4.36 µM; that for `CCCCCCOc1ccc(CN2CCN(C)CC2)cc1` was 11 µM; that for `COc1ccc(C2CC(c3ccc4ccccc4c3OC(C)=O)=NN2C(C)=O)cc1` (stereo unspecified) was 8.47 µM.
For the molecule `CCCCCCc1ccc(N2C[C@H](Cc3ccccc3)[C@@H](CC(=O)NCc3ccc(OC)cc3)C2=O)cc1`, the AC50 was 13.6 µM.
The value for `Fc1ccccc1/C=N/Nc1nc(-c2ccccn2)nc2ccccc12` was 3.49 µM; that for `CC(=O)NC(c1cc(Cl)c2cccnc2c1O)C(C)C` (stereo unspecified) was 8.18 µM; that for `COc1ccc(OCc2n(CC(=O)OC3CC(C)CCC3C(C)C)c3ccccc3[n+]2C)cc1` (stereo unspecified) was 4.3 µM.
Take `O=C(NNC(=O)c1cccnc1SCc1cccc([N+](=O)[O-])c1)c1ccc(F)cc1`: the AC50 was 15.8 µM.
The value for `C=CCc1cccc(/C=N/NC(=O)c2ccccc2OC)c1O` was 9.61 µM.
The value for `O=S(=O)(c1ccc2nc(Nc3ccccc3)ccc2c1)N1CCCCC1` was 22.4 µM; that for `CCCCCN=Cc1c(C)[nH]n(-c2nc3ccccc3s2)c1=O` was 3.2 µM; that for `CCCCCc1ccc(-c2cn(CN3C(=O)c4ccccc4C3=O)nn2)cc1` was 1.23 µM.
For `CC(C)c1ccc(/C=C(\c2nc3ccccc3[nH]2)S(=O)(=O)c2ccccc2)cc1`, the AC50 is 4.54 µM.
`COc1cc2ccccc2cc1C(=O)Nc1sc2c(c1C(N)=O)CCN(C(C)C)C2`: the AC50 is 9.16 µM.
The value for `COc1ccc(C[C@H]2CN3C(=NC[C@@H]3Cc3ccccc3)N2CCNC(=O)CCC2CCCCC2)cc1` was 12.1 µM.
The value for `CCn1c(NN=O)nc2ccccc21` was 7.85 µM; that for `Cc1ccccc1N1CCN(Cc2c[nH]c3ccccc23)CC1` was 7.37 µM.
Consider `COc1ccc(S(=O)(=O)Nc2ccc3oc(C)c(C(C)=O)c3c2)cc1`, for which the AC50 is 12.3 µM.
The value for `O=C(c1cc(-c2cccc(O)c2)on1)N1CCN(C(c2ccccc2)c2ccccc2)CC1` was 14.4 µM; that for `c1ccc(C(c2ccccc2)N2CCN(c3nc4ccccc4n4cnnc34)CC2)cc1` was 4.73 µM; that for `C=C1[C@@H](O)[C@@H]2O[C@]3(CC[C@H](/C=C/[C@@H](C)[C@@H]4CC(C)=CC5(O[C@H](C[C@@](C)(O)C(=O)OC)CC[C@H]5O)O4)O3)CC[C@H]2O[C@@H]1[C@@H](O)C[C@H](C)[C@H]1OC2(CCCCO2)CC[C@H]1C` (stereo partly specified) was under 0.195 µM.
In the case of `COc1cccc(C(=O)Oc2c(CN3CCOCC3)cc(Cl)c3cccnc23)c1`, the AC50 is 14.3 µM.
For `CC(C)(C)OC(=O)NCc1ccc(NC(=O)c2nc[nH]c2C(=O)NCCNC(=O)c2[nH]cnc2C(=O)Nc2ccc(CNC(=O)OC(C)(C)C)cc2)cc1`, the AC50 was 10.8 µM.
Next, `Cc1nc(Nc2cnc(/C=C/c3cc(C(=O)Nc4cccc(C(F)(F)F)c4)ccc3C)cn2)cc(N2CCNCC2)n1`: 12.3 µM; `CC(=O)N(Cc1ccc(F)cc1)C1=C(NCCc2ccccc2)C(=O)c2ccccc2C1=O`: 4.13 µM.
Next, `COc1ccc(C)cc1Nc1n[n+](-c2ccccc2)c(-c2c(OC)ccc3ccccc23)s1`: 6.88 µM; `COc1ccccc1NC(=O)c1nc(S(=O)(=O)Cc2ccccc2)ncc1Cl`: 8.64 µM; `COc1ccc(Cn2cc3c(-c4ccc(F)cc4)nnc-3c3cc(OC)c(OC)cc32)cc1`: 9.02 µM.
Regarding `Cc1ccc(C2(c3ccc(C)cc3)CC2C(=O)Nc2ccc([N+](=O)[O-])cc2O)cc1` (stereo unspecified), the AC50 is 3.79 µM.
As to `Cc1ccc(Cn2c(=N)n(CC(=O)c3ccccc3)c3ccccc32)cc1`, the AC50 is 9.12 µM.
